From patent publication US9718781B2, “Methods and compounds for treating proliferative disorders and viral infections” (University College Dublin, National University of Ireland, …, priority 2012, dated 2017) come the findings set out here.

Read-outs that look alike come from different tables or passages of the source.

In data set [1] the test system is MDA-MB-231-2003 breast cancer cells. Put plainly: Experimental metastasis breast tumor xenograft model in SCID mice. The data set is classed as in vivo. The following applies: 360 μg/kg i.p. 24 hr and 4 hr before tumor cell injection. Here is the method: An anticancer agent including a compound represented by formula X (hereinafter “X”) was evaluated for the ability to inhibit tumor growth and experimental metastasis in a breast tumor xenograft model in immunocompromised (SCID) mice.
MDA-MB-231-2003 breast cancer cells (1×10^6 in 0.1 ml PBS) were injected into the lateral tail vein of female SCID mice and the ability of X to inhibit metastasis to the lung was investigated (n=5 for the test X treated-mice or n=4 for the control PBS-treated mice). Mice were initially treated via intraperitoneal (i.p.) injection with either X (360 μg/kg; ˜5 μM final concentration in blood; the “test” mice) or with PBS (the “control” mice) some 24 hr. before tumor cell injection. A second injection (i.p.) was given at the same dosage of X (360 μg/kg) at 4 hr. before tumor cell injection to the test mice while the control mice received an equivalent volume of PBS before tumor cell injection. […] Thereafter, all mice were monitored by image analysis (IVIS® imaging system) every two weeks for tumor cells in their lungs and were sacrificed at day 28 post tumor cell injection.

The test system of a further data set is human platelets. Put plainly: ADP-induced platelet aggregation of human platelets ex vivo. The data set is classed as cell-based. The text has this: The method of assessing platelet aggregation also allows evaluation of the effect of the compounds of the invention on platelet aggregation upon stimulation by other agonists, e.g., adenosine diphosphate (ADP) and thrombin.

Data set [2] can be described thus: Phase 1 safety/tolerability study, repeat oral dosing. The following applies: 360 μg/kg oral gavage twice daily.
Description: Data is presented as mean body weight (±S.E.M.; FIG. 12A) or as mean percentage change in body weight (±S.E.M.; FIG. 12B) as a function of time.
A further data set has as its target T1, TPα (Homo sapiens, UniProt P21731).
T1 construct: expressed in transfected cells
T1 sequence (P21731 1-343): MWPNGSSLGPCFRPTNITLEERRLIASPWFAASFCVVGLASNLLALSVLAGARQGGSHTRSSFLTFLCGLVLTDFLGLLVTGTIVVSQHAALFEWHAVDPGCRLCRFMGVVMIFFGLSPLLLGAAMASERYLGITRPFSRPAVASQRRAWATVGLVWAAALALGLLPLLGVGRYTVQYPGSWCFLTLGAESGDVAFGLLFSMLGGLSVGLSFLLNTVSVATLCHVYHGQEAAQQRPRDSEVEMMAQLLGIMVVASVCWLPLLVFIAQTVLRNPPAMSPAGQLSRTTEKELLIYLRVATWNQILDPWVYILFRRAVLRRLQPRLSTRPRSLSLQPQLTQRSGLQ
Description: U46619-induced [Ca2+]i mobilization in HEK.TPα cells. In kind it is cell-based. The following applies: for remaining activity at 1 µM: antagonist 1 μM, read-out: Percentage of Control, TPα, 1 μM; for remaining activity at 1 µM / remaining activity at 10 µM: % of agonist-induced response in vehicle-treated cells; for remaining activity at 10 µM: antagonist 10 μM, read-out: Percentage of Control, TPα, 10 μM. Put shortly:
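HEK293 cells loaded with 3 μM Fluo-4 (1 h, 25° C.) in Krebs-HEPES pH 7.4, then pre-incubated with compound for 10 min. Fluorescence at 520 nm tracked after injection of 1 μM U46619. Signal calibrated by Fmax (2% Triton X100) and Fmin (1 mM EGTA).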

Where [3] appears, read: side-by-side comparison, n=5, Table 2.6, read-out: IC50 values for inhibition of U46619-mediated [Ca2+]i, TPα.

In the case of `COc1ccc(-c2cccc(Oc3ccc([N+](=O)[O-])cc3S(=O)(=O)NC(=O)NC(C)(C)C)c2)cc1` [TP20, N-(tert-butylcarbamoyl)-2-((4′-methoxy-[1,1′-biphenyl]-3-yl)oxy)-5-nitrobenzene-sulfonamide], the lung tumor development result in data set [1] (day 28) was “did not develop any tumors”. Besides, the “mice surviving to the end of the experiment (day 28)” value in data set [1] (n=5) was 5. Also, the “effect on ADP-induced platelet aggregation” value in the data set on human platelets is “did not affect”. For the same compound, in data set [2], the tolerability result is reported as “well tolerated with no safety issues/concerns”. Also, the “survival on repeat dosing” value in data set [2] (14 days monitoring) is reported as “All mice survived”. The compound further gave a weight loss in data set [2] (at Day 7) of roughly 4%. Moreover, the half-inhibitory concentration (IC50) at TPα (HEK.TPα cells, 1 μM U46619, Table 2, read-out: IC50 data for U46619-mediated [Ca2+]i mobilization, TPα) worked out at 119 nM. Also, at TPα (IC50 TPα/IC50 TPβ), the “TPα:TPβ Selectivity Ratio” value was determined as 16.2. Further, at TPα (1 μM U46619), the remaining activity at 1 µM is 45.4 ± 4.07% and the remaining activity at 10 µM was found to be 17.1 ± 2.46%. Further, at TPα (setting [3]), the IC50 amounted to 240 ± 29.8 nM.

As to `COc1ccc(-c2cccc(Oc3ccc(C#N)cc3S(=O)(=O)NC(=O)NC(C)(C)C)c2)cc1` [NTP4, N-(tert-butylcarbamoyl)-5-cyano-2-((4′-methoxy-[1,1′-biphenyl]-3-yl)oxy)benzenesulfonamide], on TPα (1 μM U46619), the remaining activity at 1 µM worked out at 46.1 ± 3.87% and the remaining activity at 10 µM came out at 19.9 ± 2.13%. In addition, the IC50 on TPα (setting [3]) was 593 ± 83.6 nM.
